From PubChem BioAssay AID179 (DTP/NCI, 2004)
Calls of active or inactive are those of the source.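 The calls were made as follows: active = compounds giving half or more protection of infected cells from virus-caused growth loss, again on retest; inactive = the rest.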

System: CEM cells HIV-1 protection, formazan growth assay
Assay: NCI AIDS Antiviral Assay
Conditions: for IC50: measured here: growth of uninfected CEM cells
Outline: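 Screen of anti-HIV-1 activity in human CEM cells using a formazan-based growth measurement at five drug concentrations. Hits with 50% or greater protection were repeated, and confirmation required reproducible complete protection.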

Row | Structure (SMILES) | EC50 [µM] | IC50 [µM] | outcome
1 | COc1ccc(/C=C(/C(=O)c2ccccc2)c2ccccc2)cc1 | > 8.71 | > 8.71 | 
2 | Cc1cc(C)nc(NS(=O)(=O)c2ccc(NC(=O)c3cccc4c(N)c5ccccc5nc34)cc2)n1 | > 44.7 | > 44.7 | 
3 | CCCCOC1CC2(c3ccc(OC)cc3)C(=O)c3ccccc3N2O1 (stereo not given) | > 112 | 24 | 
4 | CCN(CC)CC1CCCCN1CC(=O)N1c2ccc(Br)cc2C(=O)Nc2cccnc21 (stereo not given) | > 200 | > 200 | 
5 | C[C@@H]1C(N2CCCC2)=CC(=O)OC1c1ccccc1 (stereo not given in full) | > 200 | > 200 | 
6 | CC(C)OP(=O)(CP(=O)(OC(C)C)OC(C)C)OC(C)C.[CH3][Sn]([Br])([Br])[Br] | > 347 | > 347 | 
7 | COc1ccc(C2=C(N)c3ncccc3C2=O)cc1 | > 200 | 132 | 
8 | COc1cc2c(cc1OC)C(=O)/C(=C/c1cc(OC)c(OC)c(OC)c1)C2 | > 200 | 162 | 
9 | O=C(O)c1ccc(NCc2nc3ccccc3[nH]2)cc1 | > 200 | > 200 | 
10 | O=C(Cc1ccc([N+](=O)[O-])cc1)OCC#CCOC(=O)Cc1ccc([N+](=O)[O-])cc1 | > 200 | > 200 | 
11 | NN1C(=O)c2cccc3cccc(c23)C1=O | > 100 | 49 | 
12 | CCc1nnc(CC)n1NCCCC(=O)O | > 200 | > 200 | 
13 | O=C1N=C2C=CC=CN2CC1O (stereo not given) | > 200 | > 200 | 
14 | COc1cccc2c1[C@]1(O)C(O)CCCC21 (stereo not given in full) | > 200 | > 200 | 
15 | CCc1nc2ccc(C(F)(F)F)cc2[nH]c1=O | > 200 | 105 | 
16 | O=C(O)CCCNS(=O)(=O)c1ccccc1 |  |  | inactive
17 | COc1cccc(NC(=O)C(C#N)=C(SC)SC)c1 | > 200 | 7.94 | 
18 | CC1(C)C2=CCCC(=O)[C@@]2(C)CC[C@@H]1O |  |  | inactive
19 | CNC(=S)N/N=C1\CC(c2ccccc2)Oc2ccccc21 (stereo not given) |  |  | inactive
20 | COC(=O)C1C(C(=O)OC)C1(Br)CBr (stereo not given) | > 200 | 5.89 | 
21 | CN(C)c1ccc(/C=C2/Oc3ccc(Cl)cc3C2=O)cc1 | > 4.79 | > 4.79 | 
22 | CCc1cccc(C)c1NC(=O)NS(=O)(=O)c1ccc(C)cc1 | > 759 | > 759 | 
23 | O=C(O)C/C=C(\C(=O)O)N1C(=O)c2ccccc2C1=O |  |  | inactive
24 | COC(=O)CC1(C(=O)OC)Nc2cc(Cl)c(Cl)cc2S(=O)(=O)N1O (stereo not given) | 69.2 | 91.2 | 

Row | Structure (SMILES) | EC50 [µM] | IC50 [µM] | outcome
25 | COc1ccc(/C=C2\CN(C)CC3=C2OC(N)=C(C#N)C3c2ccc(OC)cc2)cc1 (stereo not given) | > 200 | 19.1 | 
26 | COC(=O)C1Cc2c([nH]c3ccccc23)[C@H](CC(C)C)N1 (stereo not given in full) |  |  | inactive
27 | N#CS/C(Cl)=C(/C(Cl)=C(Cl)Cl)[N+](=O)[O-] |  |  | inactive
28 | O=C(NCCOC(=O)CCCCCCCCC(=O)OCCNC(=O)NC(=O)c1cn(Cc2ccccc2)c(=O)[nH]c1=O)NC(=O)c1cn(Cc2ccccc2)c(=O)[nH]c1=O | > 43.7 | > 43.7 | 
29 | CC(=O)NC(=O)CC(=O)c1ccccc1 | > 631 | > 631 | 
30 | O=c1onc2n1-c1cc(Cl)ccc1C(=S)N1CSCC21 (stereo not given) | > 200 | 105 | 
31 | COc1ccc2c(c1)-c1c(c3cc(OC)ccc3n1CCCN(C)C)CC2 | > 200 | 5.5 | 
32 | Cc1ccc(C(=O)O/N=C2/CCCC/C2=C\c2ccccc2)cc1 |  |  | inactive
33 | c1ccc(Cc2nc3ccccc3[nH]2)cc1 | > 34.7 | > 34.7 | 
34 | NCc1ccc(O)c(O)c1O | > 200 | 9.33 | 
35 | C#CCN(Cc1ccc2nc(-c3ccccc3)c(N)nc2c1)c1cc(OC)c(OC)c(OC)c1 | > 21.9 | > 21.9 | 
36 | Cc1ccc(S(=O)CC(CF)OCn2cc(C)c(=O)[nH]c2=O)cc1 (stereo not given) |  |  | inactive
37 | O=C(O)C1C(C(=O)O)C2C=CC1C21CCCC1 (stereo not given) | > 380 | > 380 | 
38 | NS(=O)(=O)c1nnc(NS(=O)(=O)c2cccc3cccnc23)s1 | > 200 | > 200 | 
39 | O=C(O)C1CC2C=CCC(C2)C1 (stereo not given) |  |  | inactive
40 | COc1cc(C2c3cc4c(c(O)c3C[C@H]3COC(=O)[C@@H]23)OCO4)cc(OC)c1O (stereo not given in full) | > 200 | 0.0631 | 
41 | Cc1cccnc1NC(=S)Nc1cccc(C(F)(F)F)c1 | > 200 | 16.2 | 
42 | COC(=O)/C=C\C(C#N)(C#N)N=Cc1ccc(Br)s1 | > 2 | 1.1 | 
43 | CN(C)c1ccc(/C=C(/C(=O)O)c2csc(-c3nc(/C(=C\c4ccc(N(C)C)cc4)C(=O)O)cs3)n2)cc1 | > 34.7 | > 34.7 | 
44 | Cc1cc(=O)[nH]c(NN2C(Cl)C(=O)C2c2ccc([N+](=O)[O-])cc2)n1 (stereo not given) | > 53.7 | 8.51 | 
45 | Cc1ccc2cc([N+](=O)[O-])c3ccc(C)nc3c2n1 | > 200 | 3.16 | 
46 | OCC(O)C(Cl)CCl (stereo not given) | > 200 | > 200 | 
47 | O=S(=O)(NC(c1ccccc1)(c1cc2ccccc2[nH]1)c1cc2ccccc2n1S(=O)(=O)c1ccccc1)c1ccccc1 (stereo not given) | > 200 | > 200 | 
48 | CCCCCCCC(=O)OCC(C[As](=O)(O)O)OC(=O)CCCCCCC (stereo not given) | > 200 | 15.1 | 

Row | Structure (SMILES) | EC50 [µM] | IC50 [µM] | outcome
49 | CCCCC[C@@H]1CCCC2C1CC[C@@H](CCCCCI)N2C(=O)OCC(Cl)(Cl)Cl (stereo not given in full) |  |  | inactive
50 | Cc1cc(NS(=O)(=O)c2ccc(N)cc2)no1 | > 200 | > 200 | 
51 | Cc1ccc(C2(c3ccc(F)cc3)OC(=O)c3ccccc32)c(O)c1 (stereo not given) |  |  | inactive
52 | Cc1oc2ccccc2c(=O)c1C |  |  | inactive
53 | CCOC(=O)C(CCSC)(CCSC)C(=O)OCC | > 200 | > 200 | 
54 | CC(C)C(=O)/C=C/c1ccc(Cl)c(Cl)c1 | > 200 | 11 | 
55 | COc1ccc(/C(=N/O)C(c2ccc(OC)cc2)C2C(=O)Oc3ccccc32)cc1 (stereo not given) | > 17.8 | > 17.8 | 
56 | COc1cccc2c1C1(O)C2CCCC12OCCCO2 (stereo not given) | > 200 | > 200 | 
57 | Cc1ccc(C2C(Cl)C(=O)N2NC(=O)c2ccc(N)cc2)cc1 (stereo not given) | > 200 | 13.5 | 
58 | CN1Cc2c(N)cccc2C(c2ccccc2)C1 (stereo not given) |  |  | inactive
59 | CCCCCCc1cc2cc(C(=O)Nc3nc(C45CC6CC(CC(C6)C4)C5)cs3)c(=O)oc2cc1O | > 100 | 8.51 | 
60 | Cc1cn(CC2=NCC(C)(C)N2)c(=O)[nH]c1=O | > 200 | 93.3 | 
61 | O=C1/C(=C/c2ccccc2Cl)COc2ccccc21 | > 19.1 | 11.2 | 
62 | Cn1c(=O)c(Cl)c(N=[N+]=[N-])c2ccccc21 | > 75.9 | 55 | 
63 | O=C(/C=C/c1ccc([N+](=O)[O-])cc1)c1ccccc1 | > 4.07 | > 4.07 | 
64 | C1=C[C@]2(CCC13OCCO3)COc1ccccc12 | > 200 | 18.6 | 
65 | C=C(C)CCC[C@@H](C)C1CCC2(C)[C@@H]3CCC4C(C)(C)[C@@H](O)CC[C@@]45C[C@@]35CC[C@]12C (stereo not given in full) | > 200 | 46.8 | 
66 | Cc1ccc(-c2cc(=O)c3cc(C)c(C)c(C(=O)O)c3o2)cc1N |  |  | inactive
67 | N#Cc1c(Sc2ccccc2N)cccc1Sc1ccccc1N | > 200 | > 200 | 
68 | Fc1nc(Sc2ncnc3nc[nH]c23)nc(-c2c3ccccc3c3sc4ccccc4n23)n1 | > 200 | 97.7 | 
69 | c1ccc(C(NC2=NCCO2)c2ccccc2)cc1 |  |  | inactive
70 | CCCCCCCCCCCCCCNCC(OCC)OCC | > 200 | 9.33 | 
71 | CCOc1ccc(N=NC2C(=O)N(C(=O)CC(=O)Nc3ccccc3)N=C2C)cc1 (stereo not given) | > 200 | 20.4 | 
72 | C[C@]12CCC(=O)C=C1CC[C@@H]1[C@@H]2C(=O)C[C@@]2(C)[C@H]1CC[C@]2(O)C(=O)CO | > 200 | > 200 | 

Row | Structure (SMILES) | EC50 [µM] | IC50 [µM] | outcome
73 | CCOC(=O)C1(C)C(=O)CC2c3nc4ccccc4cc3CN2C1=O (stereo not given) | > 10 | > 10 | 
74 | CC/C(=C(\C#N)c1ccc(OCCN(CC)CC)cc1)c1ccc(OCCN(CC)CC)cc1 | > 200 | 1.86 | 
75 | Cc1ccc(-c2cc(-c3ccccc3)[s+]c3ccc(C)cc23)cc1 | > 200 | 6.03 | 
76 | CC(=O)Nc1ccc(C2C(C(=O)Nc3ccccc3)=C(C)NC(C)=C2C(=O)Nc2ccccc2)cc1 | > 74.1 | > 74.1 | 
77 | N#CNC(N)=NC1=CC(=O)C(=O)c2ccccc21 | > 30.2 | 17.4 | 
78 | C/C=C\C(O)C#Cc1cnc(OC)nc1OC (stereo not given) | > 200 | 42.7 | 
79 | S=C(NCCc1ccccc1)N1CCC(CCCC2CCN(C(=S)NCCc3ccccc3)CC2)CC1 | > 200 | > 200 | 
80 | CC(=Nc1ccncc1)C(C)=Nc1ccncc1 | 20.9 | 36.3 | 
81 | O=S1(=O)CC2(N3CCOCC3)CCCC21 (stereo not given) | > 1070 | 229 | 
82 | CN=C(NC#N)NCc1ccccc1 | > 1320 | 1200 | 
83 | CCc1cccc(C(C)(C)C)c1NC(=S)NC=C(C#N)C#N | > 200 | 145 | 
84 | O=c1[nH]c(=O)n(C2OC(CF)C(O)C2O)cc1Br (stereo not given) | > 200 | > 200 | 
85 | O=C1CCCCCCCCCCC1CCCCCBr (stereo not given) | > 200 | 57.5 | 
86 | O=C(O)c1cc(N=Nc2c(O)cc(O)cc2C(=O)O)ccc1/C=C/c1ccc(N=Nc2c(O)cc(O)cc2C(=O)O)cc1C(=O)O | 87.1 | 95.5 | 
87 | COc1ccccc1N1CCCSC1=Nc1ccccc1 | 81.3 | 214 | 
88 | Nc1ccc(S(=O)(=O)O)cc1[N+](=O)[O-] | > 1150 | > 1150 | 
89 | CC1C2=CC=C(O2)C(C)(C)C2=CC=C(O2)C(C)(C)C2=CC=C(O2)C(C)(C)C2=CC=C1O2 |  |  | inactive
90 | O=C1C(Cl)=C(c2ccc([N+](=O)[O-])cc2)C(=O)c2c(O)cccc21 | > 79.4 | 1.12 | 
91 | C/C(CN1C(=O)c2ccccc2C1=O)=N\NS(=O)(=O)c1ccc(Cl)cc1 | > 457 | > 457 | 
92 | CCCCC(CC)CN(Cc1cc(CN(CC(CC)CCCC)CC(CC)CCCC)c(O)c(CN(CC(CC)CCCC)CC(CC)CCCC)c1)CC(CC)CCCC (stereo not given) | > 200 | 34.7 | 
93 | Cc1nc2ccc(Br)cc2c(=O)n1-c1ccc(N)cc1 | > 200 | > 200 | 
